# Laboratory results reported in patent US12522575B2, “2-diarylmethyl-4-aminotetrahydropyran derivatives and related compounds as anticancer, antiinflammatory, antifibrotic and neuroprotective agents” (Atux Iskay LLC, priority 2021, dated 2026).
# Test system: D425 medulloblastoma cells
# Experiment: D425 cell viability / proliferation (CellTiter-Glo)
# Type: cell-based
# Conditions: @ 30 μM, 48 hours
# Protocol: D425 medulloblastoma cells were purchased from SigmaAldrich. D425 meduloblastoma cells were cultured in improved Dulbecco's modified Eagle's medium (DMEM) Richter's modification supplemented with 20% fetal bovine serum and 1% Penicillin-streptomycin. Incubation was performed at 37° C. and 5% CO2.
# D425 cells were seeded at 3000-3500 cells/90 ul growth medium per well on 96-well tissue culture plates. Cells were incubated overnight to allow them to recover. Next day cells were treated with tested compounds and incubated for 48 hours.
# Cell Proliferation assays in triplicate were performed at each concentration. Compounds test range was 1-30 μM (0, 5, 10, 15, 20, 25, and 30). The compounds were dissolved in DMSO. A series of dilutions were made in 1% DMSO in growth medium so that the final concentration of DMSO is 0.1% in all of treatments.
# After treatment, cells were allowed to equilibrate at room temperature for one hour. Cell proliferation was measured by Luminescence quantification using Promega CellTiter-Glo Luminescent Cell Viability Assay. To perform the assay, 90 ul of Celltiter-Glo substrate was added to each well, plates were shake for 2 minutes and allowed to equilibrate for 10 minutes at room temperature. Luminescence intensity was measured using the Spectramax i3x plate reader.
# (§1) The Luminescence intensity data were analyzed using the computer software Graphpad Prism. In the absence of the compound, the luminescence intensity (Lt) in each data set was defined as 100% cell viability. The percent cell in the presence of each compound was calculated according to the following equation: % Cell=L/Lt, were L=the luminescence intensity in the presence of the compound.
# The values of % cell versus a series of compound concentrations (0, 5, 10, 15, 20, 25, and 30 μM) were then plotted using Nonlinear regression analysis of Sigmoidal dose-response curve. IC50 value was determined by the concentration causing a half-maximal percent activity.
row,SMILES,"D425 cell growth, effect at single concentration [% @ 30 μM]"
1,"O=C(NC1CCOC(C2c3ccccc3CCc3ccccc32)C1)c1ccc(OC(F)(F)F)cc1 (stereo not drawn) [Example 14, N-(2-(10,11-dihydro-5H-dibenzo[a,d][7]annulen-5-yl)tetrahydro-2H-pyran-4-yl)-4-(trifluoromethoxy)benzamide]",~50

# Same assay, conditions: Medulloblastoma cell; 48 hours treatment, CellTiter-Glo; read-out: IC50 for D425 cell growth
row,IC50 [µM],SMILES
1,10.3,"O=S(=O)(NC1CCOC(C2c3ccccc3CCc3ccccc32)C1)c1ccc(OC(F)(F)F)cc1 (racemic) [Example 2, N-(2-(10,11-dihydro-5H-dibenzo[a,d][7]annulen-5-yl)tetrahydro-2H-pyran-4-yl)-4-(trifluoromethoxy)benzenesulfonamide]"
2,5.3,"O=S(=O)(N[C@H]1CCO[C@@H](C2c3ccccc3CCc3ccccc32)C1)c1ccc(OC(F)(F)F)cc1 (single isomer, unassigned) [Example 7]"
3,6.6,"O=S(=O)(NC1CCOC(C2c3ccccc3CCc3ccccc32)C1)c1ccc(Cl)cc1 (stereo not drawn) [Example 9, 4-chloro-N-(2-(10,11-dihydro-5H-dibenzo[a,d][7]annulen-5-yl)tetrahydro-2H-pyran-4-yl)benzenesulfonamide]"
4,6,"O=S(=O)(NC1CCOC(C2c3ccccc3CCc3ccccc32)C1)c1ccc(C(F)(F)F)cc1 (stereo not drawn) [Example 10, N-(2-(10,11-dihydro-5H-dibenzo[a,d][7]annulen-5-yl)tetrahydro-2H-pyran-4-yl)-4-(trifluoromethyl)benzenesulfonamide]"
5,9.5,"Cc1ccc(S(=O)(=O)NC2CCOC(C3c4ccccc4CCc4ccccc43)C2)cc1 (stereo not drawn) [Example 11, N-(2-(10,11-dihydro-5H-dibenzo[a,d][7]annulen-5-yl)tetrahydro-2H-pyran-4-yl)-4-meth ylbenzenesulfonamide]"
6,6.2,"O=S(=O)(NC1CCOC(C2c3ccccc3CCc3ccccc32)C1)c1ccc(Br)cc1 (stereo not drawn) [Example 12, 4-bromo-N-(2-(10,11-dihydro-5H-dibenzo[a,d][7]annulen-5-yl)tetrahydro-2H-pyran-4-yl)benzenesulfonamide]"
7,5.1,"O=S(=O)(NC1CCOC(C2c3ccccc3CCc3ccccc32)C1)c1cccc(C(F)(F)F)c1 (stereo not drawn) [Example 13, N-(2-(10,11-dihydro-5H-dibenzo[a,d][7]annulen-5-yl)tetrahydro-2H-pyran-4-yl)-3-(trifluoromethyl)benzenesulfonamide]"
8,11.2,"O=S(=O)(NC1CCOC(C(c2ccccc2)c2ccccc2)C1)c1ccc(OC(F)(F)F)cc1 (stereo not drawn) [Example 15, N-(2-benzhydryltetrahydro-2H-pyran-4-yl)-4-(trifluoromethoxy)benzenesulfonamide]"
9,7.3,"O=S(=O)(NC1CCOC(C(c2ccc(F)cc2)c2ccc(F)cc2)C1)c1ccc(OC(F)(F)F)cc1 (stereo not drawn) [Example 16, N-(2-(bis(4-fluorophenyl)methyl)tetrahydro-2H-pyran-4-yl)-4-(trifluoromethoxy)benzenesulfonamide]"

# Test system: A172 glioblastoma cells
# Experiment: A172 cell viability / proliferation (CellTiter-Glo)
# Type: cell-based
# Conditions: Homo sapiens, A 172, 48-72 hours treatment, read-out: IC50 for A172 cell growth
# Protocol: (§2) A172 glioblastoma cells were cultured in Dulbecco's modified Eagle's medium (DMEM) supplemented with 10% fetal bovine serum and 1% Penicillin-streptomycin. Incubation was performed at 37° C. and 5% CO2.
# A172 cells were seeded at 3000-3500 cells/90 μL growth medium per well on 96-well tissue culture plates. Cells were incubated overnight to allow them to recover and reattach. Next day cells were treated with tested compounds and incubated for 48-72 hours.
# Cell Proliferation assays in triplicate were performed at each concentration. Compounds test range was 1-30 µM (0, 5, 10, 15, 20, 25, and 30). The compounds were dissolved in DMSO. […]
# After treatment, cells were allowed to equilibrate at room temperature for 1/2 to one hour. Cell proliferation was measured by Luminescence quantification using Promega CellTiter-Glo Luminescent Cell Viability Assay. […] Luminescence intensity was measured using the Spectramax i3× plate reader.
# as §1, with “compound. […]” for “compound.”
row,IC50 [µM],SMILES
1,14.7,"O=S(=O)(NC1CCOC(C2c3ccccc3CCc3ccccc32)C1)c1ccc(OC(F)(F)F)cc1 (racemic) [Example 2, N-(2-(10,11-dihydro-5H-dibenzo[a,d][7]annulen-5-yl)tetrahydro-2H-pyran-4-yl)-4-(trifluoromethoxy)benzenesulfonamide]"

# Test system: phosphatase activity in ApoE transfected A172 glioblastoma cells
# Experiment: Cellular in vitro phosphatase activation assay (Malachite Green) in ApoE transfected A172 cells
# Type: cell-based
# Conditions: 24 hours
# Protocol: Cellular in vitro phosphatase activation assay was performed using the method of Theendakara et al, Molecular and Cellular Neuroscience, 83 (2017), pages 83-91 which is described below:
# as §2
# A172 cells were seeded at 5×10^5 cells/2.5 ml growth medium (without antibiotics) per well on 6-well tissue culture plates. Cells were incubated overnight to allow them to recover and reattach. […]
# After 24 hrs, cells were washed twice with imidazole buffer and lysed using NP-40 Lysis buffer. […] The amount of phosphate release in the assay was determined by measuring absorbance at 620 nm using the Spectramax i3x plate reader.
# The absorbance intensity data were analyzed using the computer software Graphpad Prism. The phosphate concentration for each sample was determined from the standard curve using phosphate standard concentrations. In order to compare samples, the first set (column A) were there was no transfection performed and no compound added, was designated a baseline; the absorbance measurement in this column was set as 100% phosphatase activity.
row,SMILES,% increase from ApoE transfected cell at 5 μM test compound concentration [%]
1,"O=S(=O)(NC1CCOC(C2c3ccccc3CCc3ccccc32)C1)c1ccc(OC(F)(F)F)cc1 (racemic) [Example 2, N-(2-(10,11-dihydro-5H-dibenzo[a,d][7]annulen-5-yl)tetrahydro-2H-pyran-4-yl)-4-(trifluoromethoxy)benzenesulfonamide]",7.2
